Experimental data reported in patent US11957127B1, “1,3-bis(naphthalen-2-yloxy)propan-2-one as an eco-friendly insecticidal agent against Spodoptera littoralis (boisd.)” (priority 2023, dated 2024).
Converted amounts (≈) assume the structure as drawn. Where two headings read alike, the source gives them in different places.

Test system: Spodoptera littoralis
Test: Insecticidal bioassay screening (castor leaf dip, larval mortality)
Assay type: in vivo
Settings: for Toxic ratio: 72 h, fenoxycarb's LC50 / compound's LC50 × 100
Protocol: Five concentrations (200, 100, 50, 25, 12.5 ppm) were designed for this synthetic compound and the reference fenoxycarb compound as the dynamic ingredients based on ppm via diluting the commercial formulation.
In this experiment, castor leaves are immersed in each of the previously prepared concentrations of the components for 10 seconds and then left to dry for 60 minutes. Larvae of the second and fourth instars of each checked strain are prepared with treated leaves in gauze-covered glass containers for 72 hrs. An untreated control is made in which leaves are dipped in triton x-100 and distilled water only. Then the preserved leaves were removed & fresh, untreated leaves were provided for 72 hours. Three replicates (10 larvae each) were checked for each concentration. Daily inspection was carried out for all treatments and mortality percentages were recorded 3 days (72 hours) after treatment. The average mortality percentage was corrected employing Abbott's formula. The corrected mortality rate for each of the previously synthesized compounds is statistically calculated according to Finney (1970). Through this rate, the corresponding concentration test lines (LDP lines) are assessed. Fifty and ninety percent mortality are determined, and the regression values for the checked products were previously evaluated.

[1] = 2nd instar larvae of S. littoralis, after 72 h of treatment
[2] = 4th instar larvae of S. littoralis, after 72 h of treatment

Row | SMILES | LC50 [1] | LC50 (2nd instar larvae of S. littoralis, after 72 h of treatment, listed as 1,3-bis(naphthalen-2-yloxy)propan-2-one) | Toxic ratio (2nd instar larvae) | LC50 [2] | LC50 (4th instar larvae of S. littoralis, after 72 h of treatment, listed as 1,3-bis(naphthalen-2-yloxy)propan-2-one) | Toxic ratio (4th instar larvae) | activity against Spodoptera littoralis (in words) (compared with reference insecticide fenoxycarb) | LC50 (foliar, against Spodoptera littoralis under laboratory conditions (instar not given), read-out: LC50) | LC50 (Spodoptera littoralis, foliar)
1 | O=C(COc1ccc2ccccc2c1)COc1ccc2ccccc2c1 [Compound 4, 1,3-bis(naphthalen-2-yloxy)propan-2-one] | 38.69 ppm | about 38.69 ppm | 7.0 | 86.921 ppm | about 86.921 ppm | 49.7 | active | 38.7 mg/L (≈ 113 µM) | –
2 | CCOC(=O)NCCOc1ccc(Oc2ccccc2)cc1 [Fenoxycarb, reference compound] | 2.73 ppm | – | 100 | 43.231 ppm | – | 1 | – | – | 2.73 mg/L (≈ 9.06 µM)
